Measurements: publication PMC6270821, “ROS-Mediated Cytotoxic Effect of Copper(II) Hydrazone Complexes against Human Glioma Cells” (Molecules, 2014)

Columns and labels:
[1] = tested on: T98 (p53 mutant glioblastoma multiforme) cells; assay: MTT cytotoxicity assay, T98 cells; type: cell-based, human; details: for IC50: MTT, 48 h treatment; for selectivity index (SI = IC50MRC5/IC50tumor cell), T98: T98 vs MRC5
Procedure: (§1) The in vitro cytotoxic effects of H2AcMe, H2BzMe and complexes 1 and 2 against wild type p53 U87 and mutant p53 T98 glioblastoma cells and against MRC-5 fibroblasts cells were tested using cisplatin as a positive control. To determine the IC50 (concentration that inhibits 50% of cell survival) values the cytotoxic effects were quantified using the 3-(4,5-dimethyl-2-thioazolyl)-2,5-diphenyl tetrazolium bromide (MTT) colorimetric assay. All tested compounds were cytotoxic against both glioma cell lines in a dose-dependent way. The IC50 values (see Table 1) were found in the micromolar range. Despite their cytotoxic activity, all compounds were less toxic to fibroblasts cells than cisplatin. CuCl2 evoked only mild cytotoxicity in all cell lineages with IC50 higher than 100 µM.
(§2) U87 (p53 wild-type glioblastoma multiforme) and T98 (p53 mutant glioblastoma multiforme) malignant human tumor cells and MRC5 (Human Fetal Lung Fibroblast) cells were obtained from the American Type Culture Collection (ATCC, Manassas, VA, USA). Cell lines were grown as monolayer in Dulbecco’s Modified Eagle’s Medium (DMEM, Gibco, Rockville, MD, USA), supplemented with 10% fetal bovine serum (Cultilab, Campinas, São Paulo, Brazil) and antibiotics (50 U/mL penicillin/50 […] streptomycin), in a humidified atmosphere air/CO2 (95%/5%) at 37 °C. Cells 80% confluents were used in all experiments. For all experiments, cells were seeded in 96-well plates, at a density of 1000 cells/well. After 24 h incubation cells were treated.
(§3) To determine the IC50 values the cytotoxic effects were quantified using the 3-(4,5-dimethyl-2-thioazolyl)-2,5-diphenyltetrazolium bromide (MTT) colorimetric assay. Briefly, cells were treated with increasing concentrations (10^−12, 10^−11, 10^−10, 10^−9, 10^−8, 10^−7, 10^−6, 10^−5, 10^−4 mol·L^−1) of either cisplatin (positive control) or test compounds (H2AcMe, H2BzMe, 1 and 2). The compounds were previously dissolved in dimethyl sulfoxide (DMSO) and the final concentrations were adjusted in DMEM in such manner that the final DMSO concentration was lower than 0.5%. Following 48 h treatment, MTT reagent was added to each well. Following another 4 h of incubation at 37 °C, DMSO was added to each well to dissolve formazan precipitate and absorbance was measured at 570 nm. Tests using DMSO (0.5% in DMEM) as negative control were carried out in parallel. All tests were performed in quadruplicates with full agreement between the results. Statistical analysis was carried out by the unpaired, one-tailed Student’s t testing using a p value of 0.05. A value of p < 0.05 was considered significant.

[2] = target: T1, bovine serum albumin (BSA) (Bos taurus, UniProt P02769); assay: Fluorescence quenching of BSA; type: binding; details: for quenching of BSA fluorescence emission intensity: 1.0 µM BSA, up to 10.0 µM compound, excitation 280 nm, pH 7.20, 25 °C; for number of binding sites n (BSA): Scatchard equation; for binding constant K (BSA, Scatchard): phosphate buffer pH 7.20, 25 °C; for Stern-Volmer quenching constant Ksv (BSA): λ = 345 nm, 25 °C
T1 construct: purchased Sigma-Aldrich Brasil
Procedure: Based on fluorescence data for λ = 345 nm at 25 °C, the Stern-Volmer quenching constant (Ksv) and the bimolecular quenching rate constant (kq) were obtained using the classical Stern-Volmer equation (Equation (3)). The value of kq was calculated by the Ksv/τ0 ratio, where τ0 is the average lifetime of the fluorophore in the absence of quencher (τ0 =10 ns for BSA).
The interaction of complexes 1 and 2 with bovine serum albumin (BSA) was studied in phosphate buffer (8.3 mM, pH = 7.20). Stock solution of BSA (0.5 mM) was prepared in phosphate buffer and stored in the dark in the refrigerator for further use. The stock solutions of complexes were freshly prepared by first dissolving the compounds in DMF and then making the dilutions with phosphate buffer (pH = 7.20). The amount of DMF was kept less than 5% (by volume) for each set of experiment and had no effect on any experimental results.
The binding of the copper(II) complexes to BSA was studied using fluorescence spectra. The emission spectra were recorded in the 295–600 nm range with excitation at 280 nm. The excitation and emission slit widths and scan rates were constantly maintained for all the experiments. BSA solution (1.0 µM) was titrated by successive additions of a stock solution of the complexes (50 mM) using a micropipette. All experiments were performed at 298 K. The synchronous fluorescence spectra of BSA varying the concentration of 1 and 2 were recorded at ∆λ (difference between excitation and emission wavelength) = 15 nm and ∆λ = 60 nm.
If it is assumed that the binding of compounds with BSA occurs at equilibrium, the equilibrium binding constant can be analyzed according to the Scatchard equation [28].

[3] = tested on: MRC5 (Human Fetal Lung Fibroblast) cells; assay: MTT cytotoxicity assay, MRC5 fibroblasts; type: cell-based; details: 48 h treatment
Procedure: as §1, §2, §3

[4] = tested on: U87 (p53 wild-type glioblastoma multiforme) cells; assay: MTT cytotoxicity assay, U87 cells; type: cell-based, human; details: for IC50: MTT, 48 h treatment; for selectivity index (SI = IC50MRC5/IC50tumor cell), U87: U87 vs MRC5
Procedure: as §1, §2, §3

MRC5 cells = assay: ROS generation, DCFH-DA assay, MRC5 cells; type: cell-based, human; details: 1 × 10^−5 mol/L, 24 h
Description: To examine the effects of H2AcMe, H2BzMe and their complexes 1 and 2 on the generation of free radicals (reactive oxygen species, ROS), we used the 2',7'-dichlorodihydrofluorescein diacetate (DCFH-DA) assay.
ROS accumulation was detected using dichlorodihydrofluorescein diacetate (DCFH-DA, Sigma). DCFH-DA is a non-fluorescent compound, that when it is taken up by passive diffusion into the cells, is hydrolyzed by esterases to yield non-permeable DCFH. In the presence of ROS, DCFH is oxidized to the fluorescent DCF. Tumor cells were treated with the compounds for 24 h and were then incubated with DCFH-DA (1 × 10^−5 mol·L^−1) for 30 min at 37 °C. Following incubation, the cells were washed twice with PBS. Thereafter, the cells were observed under the fluorescent microscope Zeiss Axionplan coupled with a digital camera at excitation and emission wavelengths of 488 and 525 nm, respectively. Data were analyzed using ImageJ (ImageJ, National Institute of Health, Bethesda, MD, USA) and expressed as percentages of DCFDA fluorescence of the corresponding control.

T1 sequence (P02769 25-607): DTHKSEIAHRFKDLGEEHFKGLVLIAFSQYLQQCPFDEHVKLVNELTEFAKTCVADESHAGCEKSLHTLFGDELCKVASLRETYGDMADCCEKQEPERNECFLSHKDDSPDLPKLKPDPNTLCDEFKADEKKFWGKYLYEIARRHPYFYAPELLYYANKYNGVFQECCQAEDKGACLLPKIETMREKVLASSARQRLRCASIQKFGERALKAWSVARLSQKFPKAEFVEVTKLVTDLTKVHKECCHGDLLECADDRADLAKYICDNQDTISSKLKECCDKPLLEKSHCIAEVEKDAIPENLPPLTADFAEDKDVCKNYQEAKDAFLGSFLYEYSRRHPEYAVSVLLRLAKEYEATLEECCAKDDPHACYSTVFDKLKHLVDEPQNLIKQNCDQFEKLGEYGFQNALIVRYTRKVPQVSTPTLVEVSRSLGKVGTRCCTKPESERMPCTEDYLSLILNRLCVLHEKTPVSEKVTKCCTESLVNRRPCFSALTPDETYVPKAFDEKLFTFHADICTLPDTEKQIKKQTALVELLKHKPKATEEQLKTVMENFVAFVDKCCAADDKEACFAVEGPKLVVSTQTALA

SMILES | IC50 [1] [µM] | selectivity index (SI = IC50MRC5/IC50tumor cell), T98 [1] | quenching of BSA fluorescence emission intensity [2] | number of binding sites n (BSA) [2] | binding constant K (BSA, Scatchard) [2] | Stern-Volmer quenching constant Ksv (BSA) [2] | IC50 [3] [µM] | IC50 [4] [µM] | selectivity index (SI = IC50MRC5/IC50tumor cell), U87 [4] | ROS levels in MRC5 cells compared with glioma cells (MRC5 cells)
CC(=O)NN=C(C)c1ccccn1.[Cl][Cu][Cl] [compound 1, [dichloro(2-acetylpyridineacetyl-hydrazone)copper(II)]] | 5.08 ± 0.41 | 4.42 | ~ 35% | 1.06 ± 0.01 | (1.11 ± 0.04) × 10^5 M^−1 | (0.55 ± 0.01) × 10^5 M^−1 | 22.5 ± 3.13 | 3.02 ± 0.85 | 7.45 | lower levels of ROS in MRC5 cells
CC(=O)NN=C(c1ccccc1)c1ccccn1.[Cl][Cu][Cl] [compound 2, [dichloro(2-benzoylpyridineacetylhydrazone)copper(II)]] | 29.4 ± 7.06 | 1.68 | ~ 40% | 1.06 ± 0.01 | (1.37 ± 0.05) × 10^5 M^−1 | (0.68 ± 0.01) × 10^5 M^−1 | 49.4 ± 8.83 | 5.95 ± 0.74 | 8.30 | lower levels of ROS in MRC5 than in T98 glioma cells
